Reference: ChEMBL document CHEMBL4680223, “Development of bivalent triarylalkene- and cyclofenil-derived dual estrogen receptor antagonists and downregulators” (Eur J Med Chem, 2020)
≈ marks a conversion by molar mass, not a printed value. Calls of active or inactive are those of the source. The calls are words filed in the database; no cut-off is given here.

Legend:
Estrogen receptor beta [1] = target: T1, Estrogen receptor beta (Homo sapiens, UniProt Q92731)
Estrogen receptor beta [2] = target: T1, Estrogen receptor beta; test: Agonist activity at recombinant human GST-tagged ERbeta assessed as increase in fluorescein-labelled coactivator PGC1 peptide recruitment at 1 uM by LanthaScreen TR-FRET assay
Estrogen receptor beta [3] = target: T1, Estrogen receptor beta; test: Agonist activity at ERbeta (unknown origin) expressed in human U2OS cells at 0.1 to 1 uM measured after 21 hrs by dual luciferase reporter gene assay; assay type: cell-based; conditions: dose 0.1-1 µM
Estrogen receptor [4] = target: T2, Estrogen receptor (Homo sapiens, UniProt P03372); test: Agonist activity at ERalpha (unknown origin) expressed in human U2OS cells at 0.1 to 1 uM measured after 21 hrs by dual luciferase reporter gene assay; assay type: cell-based; conditions: dose 0.1-1 µM
T2 sequence (P03372 whole entry): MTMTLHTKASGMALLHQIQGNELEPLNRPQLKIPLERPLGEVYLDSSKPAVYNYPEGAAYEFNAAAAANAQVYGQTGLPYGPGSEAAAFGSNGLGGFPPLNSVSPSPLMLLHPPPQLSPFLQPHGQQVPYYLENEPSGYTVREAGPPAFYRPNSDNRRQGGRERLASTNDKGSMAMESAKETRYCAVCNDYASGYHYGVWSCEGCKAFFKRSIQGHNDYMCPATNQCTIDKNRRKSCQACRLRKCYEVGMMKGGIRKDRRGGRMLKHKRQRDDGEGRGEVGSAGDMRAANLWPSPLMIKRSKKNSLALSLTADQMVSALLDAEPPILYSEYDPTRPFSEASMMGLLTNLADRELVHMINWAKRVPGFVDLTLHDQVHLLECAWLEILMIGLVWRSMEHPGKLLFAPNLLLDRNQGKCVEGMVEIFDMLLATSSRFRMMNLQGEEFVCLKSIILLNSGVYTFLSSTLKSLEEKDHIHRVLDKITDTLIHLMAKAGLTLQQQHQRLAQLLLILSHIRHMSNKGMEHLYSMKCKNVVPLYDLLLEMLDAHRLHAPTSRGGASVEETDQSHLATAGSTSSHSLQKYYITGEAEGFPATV

Estrogen receptor [5] = target: T2, Estrogen receptor
Estrogen receptor beta [6] = target: T1, Estrogen receptor beta; remark: listed apart in the source
COS-7 [7] = test: Cytotoxicity against African green monkey COS7 cells assessed as reduction in cell metabolic activity up to 20 uM measured after 72 hrs by modified MTT based EZ4U assay; assay type: ADME; conditions: chlorocebus aethiops, cos-7, 72 h
Estrogen receptor [8] = target: T2, Estrogen receptor; remark: listed apart in the source
physchem = conditions: water
Description: Aqueous solubility of compound in water

[9] = Drug uptake in human MCF7 cells assessed per mg protein at 10 uM incubated for 24 hrs by fluorescence assay; assay type: ADME, cell-based; conditions: mcf7, 24 h
[10] = Drug uptake in African green monkey COS7 cells assessed per mg protein at 10 uM incubated for 24 hrs by fluorescence assay; assay type: ADME; conditions: chlorocebus aethiops, cos-7, 24 h
MCF7 [11] = test: Antiproliferative activity against human MCF7 cells assessed as reduction in cell metabolic activity at 10 uM measured after 72 hrs by modified MTT based EZ4U assay relative to control; assay type: functional; parameters: scale not given: the % may be the effect or the level left
COS-7 [12] = test: Cytotoxicity against African green monkey COS7 cells assessed as reduction in cell metabolic activity up to 10 uM measured after 72 hrs by modified MTT based EZ4U assay; assay type: ADME; conditions: chlorocebus aethiops, cos-7, 72 h
MCF7 [13] = test: Antiproliferative activity against human MCF7 cells assessed as cell mass at 10 uM measured after 72 hrs by crystal violet staining based assay relative to control; assay type: functional
MCF7 [14] = test: Antiproliferative activity against human MCF7 cells assessed as cell mass at 50 nM measured after 72 hrs by crystal violet staining based assay relative to control; assay type: functional
MCF7 [15] = test: cells; conditions: Homo sapiens, MCF7, 72 h
Description: Antiproliferative activity against human MCF7 cells assessed as reduction in cell mass measured after 72 hrs by crystal violet staining based assay

COS-7 [16] = test: cells; conditions: Chlorocebus aethiops, COS-7, 72 h
Description: Cytotoxicity against African green monkey COS7 cells assessed as reduction in cell mass measured after 72 hrs by crystal violet staining based assay

[17] = target: T3, Estrogen receptor (Homo sapiens) (UniProt P03372); test: Selective estrogen receptor alpha degrader activity in human MCF7 cells assessed as down regulation of ERalpha expression at 1 uM measured after 4 hrs in presence of protease inhibitor MG-132 by Western blot analysis; assay type: cell-based
T3 sequence (whole entry): T2 sequence (P03372 whole entry)

Estrogen receptor beta [18] = target: T1, Estrogen receptor beta; test: Antagonist activity at recombinant human GST-tagged ERbeta assessed as inhibition of E2-induced increase in fluorescein-labelled coactivator PGC1 peptide recruitment at 100 nM measured after 30 mins by LanthaScreen TR-FRET assay relative to control; conditions: filed as antagonist
Estrogen receptor beta [19] = target: T1, Estrogen receptor beta; test: Antagonist activity at recombinant human GST-tagged ERbeta assessed as inhibition of E2-induced increase in fluorescein-labelled coactivator PGC1 peptide recruitment at 1 uM measured after 10 to 30 mins by LanthaScreen TR-FRET assay relative to control; conditions: filed as antagonist, time 10-30 min
MDA-MB-231 [20] = test: Antiproliferative activity against human MDA-MB-231 cells assessed as cell mass at 20 uM measured after 72 hrs by crystal violet staining based assay relative to control; assay type: functional
MDA-MB-231 [21] = test: Antiproliferative activity against human MDA-MB-231 cells assessed as reduction in cell mass at 10 uM measured after 72 hrs by crystal violet staining based assay relative to control; assay type: functional; parameters: scale not given: the % may be the effect or the level left
SK-BR-3 [22] = test: Antiproliferative activity against human SK-BR-3 cells assessed as cell mass at 20 uM measured after 72 hrs by crystal violet staining based assay relative to control; assay type: functional
SK-BR-3 [23] = test: Antiproliferative activity against human SK-BR-3 cells assessed as reduction in cell mass at 10 uM measured after 72 hrs by crystal violet staining based assay relative to control; assay type: functional; parameters: scale not given: the % may be the effect or the level left
Estrogen receptor beta [24] = target: T1, Estrogen receptor beta; test: Antagonist activity at recombinant human GST-tagged ERbeta assessed as inhibition of E2-induced increase in fluorescein-labelled coactivator PGC1 peptide recruitment at 1 uM measured after 10 mins by LanthaScreen TR-FRET assay; conditions: filed as antagonist
MCF7 [25] = test: Antiproliferative activity against human MCF7 cells assessed as reduction in cell metabolic activity up to 10 uM measured after 72 hrs by modified MTT based EZ4U assay; assay type: functional; conditions: dose microM <=10, time 72.0 hrs
Estrogen receptor beta [26] = target: T1, Estrogen receptor beta; test: Antagonist activity at recombinant human GST-tagged ERbeta assessed as inhibition of E2-induced increase in fluorescein-labelled coactivator PGC1 peptide recruitment at 5 uM measured after 30 mins by LanthaScreen TR-FRET assay relative to control; conditions: filed as antagonist

T1 sequence (Q92731 whole entry): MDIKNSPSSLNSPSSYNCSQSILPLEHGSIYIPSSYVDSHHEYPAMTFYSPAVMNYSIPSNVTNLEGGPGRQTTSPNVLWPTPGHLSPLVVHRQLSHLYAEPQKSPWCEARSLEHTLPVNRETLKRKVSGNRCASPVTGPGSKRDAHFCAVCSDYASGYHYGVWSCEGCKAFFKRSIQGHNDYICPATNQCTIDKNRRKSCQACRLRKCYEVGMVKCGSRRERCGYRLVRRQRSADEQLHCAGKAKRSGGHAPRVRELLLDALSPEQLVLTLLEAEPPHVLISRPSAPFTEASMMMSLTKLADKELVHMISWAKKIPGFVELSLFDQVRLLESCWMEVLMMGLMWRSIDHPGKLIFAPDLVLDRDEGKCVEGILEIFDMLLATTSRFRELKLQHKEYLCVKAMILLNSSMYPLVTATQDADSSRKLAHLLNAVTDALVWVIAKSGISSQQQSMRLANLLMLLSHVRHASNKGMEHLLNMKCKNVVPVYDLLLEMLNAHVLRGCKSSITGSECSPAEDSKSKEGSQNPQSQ

Row | SMILES | IC50 (Estrogen receptor beta [1]) [nM] | Activity (Estrogen receptor beta [2]) | Activity (Estrogen receptor beta [3]) | Activity (Estrogen receptor [4]) | IC50 (Estrogen receptor [5]) [nM] | IC50 (Estrogen receptor beta [6]) [nM] | IC50 (Estrogen receptor [8]) [nM] | solubility (physchem) [µM] | Activity (COS-7 [7]) | Activity (COS-7 [12]) | inhibition (Estrogen receptor beta [18]) [%] | other results
1 | O=C(/C=C/c1ccc(C(=C2CCCCC2)c2ccc(O)cc2)cc1)NCCCCCNC(=O)/C=C/c1ccc(C(=C2CCCCC2)c2ccc(O)cc2)cc1 | – | – | – | – | – | – | – | 10 (≈ 7.35 µg/mL) | – | Non-Toxic | – | Activity (MCF7 [11]): 50%
2 | C[C@]12CC[C@@H]3c4ccc(O)cc4C[C@@H](CCCCCCCCC[S+]([O-])CCCC(F)(F)C(F)(F)F)[C@H]3[C@@H]1CC[C@@H]2O (some centres undefined) [FULVESTRANT] | – | – | – | – | – | – | – | – | Non-Toxic | – | – | T/C (MCF7 [13]): 75.5%; T/C (MCF7 [14]): 64%; IC50 (MCF7 [15]): 4930 nM; IC50 (COS-7 [16]): 34000 nM
3 | O=C(/C=C/c1ccc(C(=C2CCCCC2)c2ccc(O)cc2)cc1)NCCCNC(=O)/C=C/c1ccc(C(=C2CCCCC2)c2ccc(O)cc2)cc1 | 34 | Not Active | Not Active | Not Active | 1.67 | 304 | 565 | 15.4 (≈ 10.9 µg/mL) | – | Non-Toxic | 50 | Activity (MCF7 [11]): 53%
4 | CC/C(=C(/c1ccc(O)cc1)c1ccc(OCCN(C)C)cc1)c1ccccc1 | – | – | – | – | – | – | – | – | Non-Toxic | – | – | T/C (MDA-MB-231 [20]): -80%; Activity (MDA-MB-231 [21]): 79%; T/C (SK-BR-3 [22]): -81%; Activity (SK-BR-3 [23]): 58%; IC50 (MCF7 [15]): 4940 nM; IC50 (COS-7 [16]): 8690 nM
5 | O=C(/C=C/c1ccc(C(=C2CCCCC2)c2ccc(O)cc2)cc1)NCCCCNC(=O)/C=C/c1ccc(C(=C2CCCCC2)c2ccc(O)cc2)cc1 | 15.7 | Not Active | Not Active | – | – | 54.8 | – | 10 (≈ 7.21 µg/mL) | – | Non-Toxic | 50 | Activity (MCF7 [11]): 69%; Drug uptake [9]: 5.22 nmol; Drug uptake [10]: 11.7 nmol
6 | CC/C(=C(\c1ccc(O)cc1)c1ccc(/C=C/C(=O)O)cc1)c1ccccc1 | – | – | – | – | – | – | – | – | – | Non-Toxic | – | T/C (MCF7 [13]): 33%; inhibition (Estrogen receptor beta [24]): Active; Activity [17]: inactive; Activity (MCF7 [25]): inactive; inhibition (Estrogen receptor beta [26]): 50%

Continued, in another order:

Row | IC50 (Estrogen receptor beta [1]) [nM] | Activity (Estrogen receptor beta [2]) | Activity (Estrogen receptor beta [3]) | Activity (Estrogen receptor [4]) | IC50 (Estrogen receptor [5]) [nM] | IC50 (Estrogen receptor beta [6]) [nM] | IC50 (Estrogen receptor [8]) [nM] | solubility (physchem) [µM] | SMILES | Activity (COS-7 [7]) | Activity (COS-7 [12]) | inhibition (Estrogen receptor beta [18]) [%] | other results
7 | 67.7 | Not Active | Not Active | Not Active | 15.1 | 78.7 | 260 | > 40 | CC/C(=C(/c1ccc(O)cc1)c1ccc(/C=C/C(=O)NCCNC(=O)/C=C/c2ccc(/C(=C(\CC)c3ccccc3)c3ccc(O)cc3)cc2)cc1)c1ccccc1 | Non-Toxic | – | – | –
8 | – | – | – | Not Active | – | – | – | – | CC/C(=C(/c1ccc(O)cc1)c1ccc(/C=C/C(=O)NCCN)cc1)c1ccccc1.O=C(O)C(F)(F)F.O=C(O)C(F)(F)F.O=C(O)C(F)(F)F | Non-Toxic | – | – | Drug uptake [9]: 35.3 nmol; Drug uptake [10]: 33.7 nmol
9 | 22.2 | Not Active | Not Active | Not Active | 1.28 | 153 | 136 | 24 (≈ 18.7 µg/mL) | CC/C(=C(/c1ccc(O)cc1)c1ccc(/C=C/C(=O)NCCCNC(=O)/C=C/c2ccc(/C(=C(\CC)c3ccccc3)c3ccc(O)cc3)cc2)cc1)c1ccccc1 | – | – | 50 | Activity [17]: Active; inhibition (Estrogen receptor beta [19]): 100%
10 | 27.5 | Not Active | Not Active | – | – | 216 | – | 6.5 (≈ 4.5 µg/mL) | O=C(/C=C/c1ccc(C(=C2CCCCC2)c2ccc(O)cc2)cc1)NCCNC(=O)/C=C/c1ccc(C(=C2CCCCC2)c2ccc(O)cc2)cc1 | – | – | – | –
11 | 44 | Not Active | Not Active | Not Active | 18.9 | 215 | 290 | 19 (≈ 15.1 µg/mL) | CC/C(=C(/c1ccc(O)cc1)c1ccc(/C=C/C(=O)NCCCCNC(=O)/C=C/c2ccc(/C(=C(\CC)c3ccccc3)c3ccc(O)cc3)cc2)cc1)c1ccccc1 | Non-Toxic | – | 50 | Drug uptake [9]: 4.67 nmol; Drug uptake [10]: 3.92 nmol; inhibition (Estrogen receptor beta [19]): 100%
12 | 15.5 | Not Active | Not Active | – | – | 256 | – | 34 (≈ 27.4 µg/mL) | CC/C(=C(/c1ccc(O)cc1)c1ccc(/C=C/C(=O)NCCCCCNC(=O)/C=C/c2ccc(/C(=C(\CC)c3ccccc3)c3ccc(O)cc3)cc2)cc1)c1ccccc1 | – | – | – | –
